# Assay results taken from US20110217715A1, “GENE EXPRESSION IN DUCHENNE MUSCULAR DYSTROPHY” (CHILDREN'S HOSPITAL MEDICAL CENTER, priority 2008, published 2011).
# System: mRNA expression in peripheral blood of individuals with DMD
# Assay: Whole-blood gene expression microarray: DMD administered deflazacort vs DMD administered prednisone
# Assay type: in vivo, human
# Method: Fifteen ml of blood was collected from each individual into 6 PAXgene® Vacutainer® tubes (PreAnalytiX, Germany) by antecubital fossa venipuncture. PAXgene® tubes contain a proprietary reagent that immediately stabilizes RNA, thus reducing RNA degradation and minimizing gene expression changes following phlebotomy. The tubes were then inverted 20 times, then remained undisturbed for 2 h at room temperature (about 19° C. to about 22° C.), and then stored at -70° C. until processed. Total RNA was isolated using the Paxgene® blood RNA kit (PreAnalytiX, Germany) according to the manufacturers instructions. The RNA isolated is from all cells in whole blood. Typical yields of total RNA isolated from about 7.5 ml of human whole blood were between 10 μg RNA and 40 μg RNA. RNA quality and purity was analyzed by spectrophotometry using the Nanodrop ND-1000, and RNA integrity was analyzed using the Agilent 2100 Bioanalyzer. […] Sample labeling, hybridization to chips, and image scanning were performed using standard Affymetrix protocols. For each whole blood sample from control individuals and individuals with DMD, total RNA was labeled using the One-Cycle Target Labeling protocol and hybridized to the arrays. […] Double-stranded cDNA synthesis, biotin-labeled cRNA synthesis, and cRNA fragmentation were performed according to the Affymetrix GeneChip Eukaryotic Expression Analysis protocol. The labeled, fragmented cRNA (15 μg) was hybridized at 45° C. overnight. After hybridization, the array was washed and stained. The arrays were scanned with an argon-ion laser at λ=570 nm, with a resolution of 3 μm/pixel (Affymetrix, Inc.). After scanning the array, the raw probe level values for each probe were saved in Affymetrix.cel files. […] Statistical analyses, including t-test analyses, unsupervised hierarchical clustering, and principal component analyses were conducted using Genespring 7.2 software ([…]® 7, Silicon Genetics, Redwood City Calif.). […] Corrections for multiple comparisons used a Benjamini-Hochberg False Discovery Rate (FDR) of 0.05, disclosed in Tang et al., J Cereb Blood Flow Metab 26 (2006) 1089, which is expressly incorporated by reference herein in its entirety. […] Sample processing and array hybridization, probe-level data analysis, and statistical analysis were identical to Example 1.
smiles,measurement,setting,value
CC(=O)OCC(=O)[C@@]12N=C(C)O[C@@H]1C[C@H]1[C@@H]3CCC4=CC(=O)C=C[C@]4(C)[C@H]3[C@@H](O)C[C@@]12C [deflazacort],"p-value (t-test, deflazacort vs prednisone)","deflazacort vs. prednisone, NM_004862, Nucleic Acid No. 2094",0.0123
same,"p-value (t-test, deflazacort vs. prednisone)","deflazacort vs. prednisone, NM_005306, Nucleic Acid No. 2036",0.00696
same,"p-value (t-test, deflazacort vs. prednisone)","deflazacort vs. prednisone, NM_005345, Nucleic Acid No. 275",0.0354
same,p-value,"deflazacort vs. prednisone, NM_005461, Nucleic Acid No. 1310",0.0317
same,p-value,"deflazacort vs. prednisone, NM_005502, Nucleic Acid No. 1893",0.00709
same,"p-value (t-test, deflazacort vs prednisone)","deflazacort vs. prednisone, NM_005569, Nucleic Acid No. 2093",0.0261
same,"p-value (t-test, deflazacort vs prednisone)","deflazacort vs. prednisone, NM_005574, Nucleic Acid No. 2095",0.0476
same,p-value,"deflazacort vs. prednisone, NM_005720, Nucleic Acid No. 1912",0.0485
same,p-value,"deflazacort vs. prednisone, NM_005890, Nucleic Acid No. 2024",0.0113
same,"p-value (t-test, deflazacort vs. prednisone)","deflazacort vs. prednisone, NM_006018, Nucleic Acid No. 2035",0.000507
same,"p-value (t-test, deflazacort vs. prednisone)","deflazacort vs. prednisone, NM_006332, Nucleic Acid No. 2055",0.0414
same,p-value,"deflazacort vs. prednisone, NM_006854, Nucleic Acid No. 2078",0.0129
same,"p-value (t-test, deflazacort vs prednisone)","deflazacort vs. prednisone, NM_006863, Nucleic Acid No. 2092",0.00957
same,"p-value (t-test, deflazacort vs. prednisone)","deflazacort vs. prednisone, NM_014179, Nucleic Acid No. 2051",0.0407
same,"p-value (t-test, deflazacort vs. prednisone)","deflazacort vs. prednisone, NM_014339, Nucleic Acid No. 2058",0.0463
same,"p-value (t-test, deflazacort vs prednisone)","deflazacort vs. prednisone, NM_014656, Nucleic Acid No. 2079",0.00329
same,p-value,"deflazacort vs. prednisone, NM_018690, Nucleic Acid No. 1907",0.00658
same,p-value,"deflazacort vs. prednisone, NM_019043, Nucleic Acid No. 1040",0.0288
same,"p-value (t-test, deflazacort vs. prednisone)","deflazacort vs. prednisone, NM_020179, Nucleic Acid No. 2016",0.0196
same,"p-value (t-test, deflazacort vs. prednisone)","deflazacort vs. prednisone, NM_020386, Nucleic Acid No. 2046",0.0129
same,p-value,"deflazacort vs. prednisone, NM_152641, Nucleic Acid No. 1576",0.0457
same,"p-value (t-test, deflazacort vs. prednisone)","deflazacort vs. prednisone, R38084, Nucleic Acid No. 2026",0.0133
same,p-value,"deflazacort vs. prednisone, S72848, Nucleic Acid No. 1686",0.0226
same,"p-value (t-test, deflazacort vs prednisone)","deflazacort vs. prednisone, T85248, Nucleic Acid No. 1311",0.0383
same,p-value,"deflazacort vs. prednisone, U48734, Nucleic Acid No. 1898",0.0349
same,"p-value (t-test, deflazacort vs. prednisone)","deflazacort vs. prednisone, U65590, Nucleic Acid No. 2061",0.00419
same,p-value,"deflazacort vs. prednisone, U70064, Nucleic Acid No. 414",0.0255
same,"p-value (t-test, deflazacort vs. prednisone)","deflazacort vs. prednisone, U81501, Nucleic Acid No. 2021",0.0425
same,"p-value (t-test, deflazacort vs prednisone)","deflazacort vs. prednisone, U93240, Nucleic Acid No. 2086",0.0114
same,p-value,"deflazacort vs. prednisone, U97075, Nucleic Acid No. 1949",0.0264
same,"p-value (t-test, deflazacort vs. prednisone)","deflazacort vs. prednisone, W27419, Nucleic Acid No. 2052",0.0306
same,"p-value (t-test, deflazacort vs. prednisone)","deflazacort vs. prednisone, W93728, Nucleic Acid No. 1590",0.0103
same,p-value,"deflazacort vs. prednisone, W95007, Nucleic Acid No. 1896",0.0111
same,"p-value (t-test, deflazacort vs. prednisone)","deflazacort vs. prednisone, X51757, Nucleic Acid No. 2050",0.0352
same,p-value,"gene M-RIP, Genbank BF515158, Nucleic Acid No. 2128",0.0466
same,p-value,"gene MLKL, Genbank AA706818, Nucleic Acid No. 2125",0.031
same,p-value,"gene MLL3, Genbank AI057455, Nucleic Acid No. 2126",0.0474
same,p-value,"gene MLLT2, Genbank AA703523, Nucleic Acid No. 2127",0.0149
same,p-value,"gene MLSTD1, Genbank NM_018099, Nucleic Acid No. 1848",0.0331
same,p-value,"gene MS4A7, Genbank AF237916, Nucleic Acid No. 2129",0.0291
same,p-value,"gene MTF1, Genbank NM_005955, Nucleic Acid No. 2130",5.84E−05
same,p-value,"gene MX2, Genbank NM_002463, Nucleic Acid No. 2131",0.0283
same,p-value,"gene MYADM, Genbank BE908995, Nucleic Acid No. 2132",0.0206
same,p-value,"gene MYLIP, Genbank AW292746, Nucleic Acid No. 2133",0.00321
same,p-value,"gene MYO1F, Genbank BF740152, Nucleic Acid No. 2134",0.0266
same,p-value,"gene N4BP1, Genbank AB014515, Nucleic Acid No. 2135",0.0291
same,p-value,"gene NCF2, Genbank BC001606, Nucleic Acid No. 2136",0.0348
same,p-value,"gene NCOA1, Genbank BF576458, Nucleic Acid No. 2137",0.00399
same,p-value,"gene NCOA6, Genbank AF128458, Nucleic Acid No. 926",0.0221
same,p-value,"gene NDE1, Genbank BF973292, Nucleic Acid No. 2138",0.024
same,p-value,"gene NDE1, Genbank NM_017668, Nucleic Acid No. 2139",0.0358
same,p-value,"gene NFIC, Genbank AW134798, Nucleic Acid No. 2140",0.0141
same,p-value,"gene NKTR, Genbank AI880383, Nucleic Acid No. 2141",0.0222
same,p-value,"gene NOTCH2, Genbank AA291203, Nucleic Acid No. 2142",0.00739
same,p-value,"gene NOTCH2, Genbank AF308601, Nucleic Acid No. 1046",0.0265
same,p-value,"gene NOTCH2NL, Genbank AW516297, Nucleic Acid No. 2143",0.0362
same,p-value,"gene NSF, Genbank AK025172, Nucleic Acid No. 2144",0.0411
same,p-value,"gene OLIG1, Genbank AL355743, Nucleic Acid No. 1399",0.00583
same,p-value,"gene OSTF1, Genbank NM_012383, Nucleic Acid No. 2145",0.0203
same,p-value,"gene PACSIN2, Genbank NM_007229, Nucleic Acid No. 2146",0.0409
same,p-value,"gene PAPD4, Genbank AW104325, Nucleic Acid No. 2147",0.00878
same,p-value,"gene PARP9, Genbank AI738416, Nucleic Acid No. 2148",0.0394
same,p-value,"gene PARVG, Genbank AL355092, Nucleic Acid No. 2149",0.0293
same,p-value,"gene PB1, Genbank H79538, Nucleic Acid No. 2150",0.0371
same,p-value,"gene PBX2, Genbank BE397715, Nucleic Acid No. 2151",0.0221
same,p-value,"gene PCBP2, Genbank AW025150, Nucleic Acid No. 2152",0.0394
same,p-value,"gene PDLIM5, Genbank NM_006457, Nucleic Acid No. 2153",0.0238
